Assay: method code SF, from DOI: 10.1021/jm201475u, PMID: 22339047
Conditions: for logD: pH 7.4

SMILES	logP	logD
Cc1[nH]cc(F)c(=O)c1O	0	–
Cc1c(O)c(=O)c(F)cn1C	-0.8	–
O=c1cc[nH]c(F)c1O	–	-0.21
Cc1cn(C)c(F)c(O)c1=O	-0.65	–
Cn1ccc(=O)c(O)c1C(F)(F)F	-0.45	–
CC(C)n1cc(O)c(=O)c(F)c1	-0.92	–
CCCn1cc(O)c(=O)c(F)c1	-0.46	–
CCCCn1ccc(=O)c(O)c1F	0.38	–
Cc1c[nH]c(F)c(O)c1=O	–	0.5
CC(C)n1ccc(=O)c(O)c1F	-0.41	–
CCc1c(O)c(=O)ccn1CC	–	0.23
Cc1cc(=O)c(O)c(F)[nH]1	–	0.25
CCCn1ccc(=O)c(O)c1F	-0.08	–
Cn1cc(O)c(=O)c(F)c1	-1.32	–
CCn1cc(O)c(=O)c(F)c1	-0.89	–
O=c1cc[nH]c(C(F)(F)F)c1O	0.87	–
Cc1[nH]c(F)c(O)c(=O)c1C	–	1.07
Cn1ccc(=O)c(O)c1F	-0.97	–
O=c1c(O)c(F)[nH]c(F)c1F	1.7	–
CCn1ccc(=O)c(O)c1F	-0.58	–
O=c1cc[nH]c(C(O)C(F)(F)F)c1O (configuration not stated)	0.14	–
O=c1cc(F)[nH]c(F)c1O	1.35	–

Reference: the SangsterLogP compilation
